Like-named read-outs stand apart in the source and are kept apart here.
Experiments:
CDK-4/cyclinD1 = CDK-4/cyclinD1 (Homo sapiens, UniProt P11802); assay: CDK panel (Reaction Biology); assay type: biochemical; details: tested at Reaction Biology, Inc.
CDK-9/cyclinT1 = CDK-9/cyclinT1 (Homo sapiens, UniProt P50750); assay: CDK panel (Reaction Biology); assay type: biochemical; details: tested at Reaction Biology, Inc.
CDK-2/cyclinE = CDK-2/cyclinE (Homo sapiens, UniProt P24941); assay: CDK-2/CyclinE inhibition (Reaction Biology); assay type: biochemical; details: tested at Reaction Biology, Inc.
CDK-1/cyclinB = CDK-1/cyclinB (Homo sapiens, UniProt P06493); assay: CDK panel (Reaction Biology); assay type: biochemical; details: tested at Reaction Biology, Inc.
[1] = molecular target: T1, recombinant human His6-GSK-3β (Homo sapiens, UniProt P49841); assay: GSK-3β kinase assay, [γ32P] transfer to primed glycogen synthase peptide; assay type: biochemical; details: 10 μM ATP; 10 μM pGSM peptide; 30 minutes at 30° C.; read-out: IC50 (nM), GSK-3β inhibition;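 note: phosphate incorporation quantified by liquid scintillation counting of the filters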
T1 construct: His6; purchased EMD Biosciences

CDK-3/cyclinE [2] = molecular target: T2, CDK-3/cyclinE (Homo sapiens, UniProt Q00526); details: read-out: IC50 (μM) CDK-3/cyclinE; tested at Reaction Biology, Inc.
CDK-2/cyclinA = CDK-2/cyclinA (Homo sapiens, UniProt P24941); assay: CDK panel (Reaction Biology); assay type: biochemical; details: tested at Reaction Biology, Inc.
CDK-6/cyclinD3 = CDK-6/cyclinD3 (Homo sapiens, UniProt Q00534); assay: CDK panel (Reaction Biology); assay type: biochemical; details: tested at Reaction Biology, Inc.
CDK-5/P35 = CDK-5/P35 (Homo sapiens, UniProt Q00535); assay: CDK panel (Reaction Biology); assay type: biochemical; details: tested at Reaction Biology, Inc.
CDK-5/P25 = CDK-5/P25 (Homo sapiens, UniProt Q00535); assay: CDK panel (Reaction Biology); assay type: biochemical; details: tested at Reaction Biology, Inc.
b-Raf-V599E = b-Raf-V599E (Homo sapiens, UniProt P15056, V600E); assay: Kinase panel (Novartis); assay type: biochemical
c-src = c-src (Homo sapiens, UniProt P12931); assay: Kinase panel (Novartis); assay type: biochemical
EphB4 = EphB4 (Homo sapiens, UniProt P54760); assay: Kinase panel (Novartis); assay type: biochemical
Tek = Tek (Homo sapiens, UniProt Q02763); assay: Kinase panel (Novartis); assay type: biochemical
JAK-2 = JAK-2 (Homo sapiens, UniProt O60674); assay: Kinase panel (Novartis); assay type: biochemical
IGF-1R = IGF-1R (Homo sapiens, UniProt P08069); assay: Kinase panel (Novartis); assay type: biochemical
Axl = Axl (Homo sapiens, UniProt P30530); assay: Kinase panel (Novartis); assay type: biochemical
Flt-3 = Flt-3 (Homo sapiens, UniProt P36888); assay: Kinase panel (Novartis); assay type: biochemical
HER-1 = HER-1 (Homo sapiens, UniProt P00533); assay: Kinase panel (Novartis); assay type: biochemical
c-Met = c-Met (Homo sapiens, UniProt P08581); assay: Kinase panel (Novartis); assay type: biochemical
PDK1 = molecular target: T3, PDK1 (Homo sapiens, UniProt O15530); assay: Kinase panel (Novartis); assay type: biochemical
T3 sequence (O15530 1-556): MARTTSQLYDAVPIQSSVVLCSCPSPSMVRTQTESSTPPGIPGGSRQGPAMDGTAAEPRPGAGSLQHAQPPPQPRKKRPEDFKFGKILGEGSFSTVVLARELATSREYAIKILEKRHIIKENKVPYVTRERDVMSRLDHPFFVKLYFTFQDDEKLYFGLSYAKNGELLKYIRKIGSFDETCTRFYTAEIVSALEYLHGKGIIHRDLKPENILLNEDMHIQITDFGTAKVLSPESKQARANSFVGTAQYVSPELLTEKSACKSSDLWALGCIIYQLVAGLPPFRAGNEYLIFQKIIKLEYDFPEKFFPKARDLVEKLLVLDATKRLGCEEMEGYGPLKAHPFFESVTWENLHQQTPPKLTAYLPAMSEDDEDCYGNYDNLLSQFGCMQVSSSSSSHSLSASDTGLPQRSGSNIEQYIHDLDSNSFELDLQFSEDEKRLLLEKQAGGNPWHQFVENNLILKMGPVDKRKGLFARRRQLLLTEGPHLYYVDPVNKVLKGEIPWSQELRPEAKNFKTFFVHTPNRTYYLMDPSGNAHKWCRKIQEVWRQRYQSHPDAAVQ

c-Abl = c-Abl (Homo sapiens, UniProt P00519); assay: Kinase panel (Novartis); assay type: biochemical
KDR = KDR (Homo sapiens, UniProt P35968); assay: Kinase panel (Novartis); assay type: biochemical
Ret = Ret (Homo sapiens, UniProt P07949); assay: Kinase panel (Novartis); assay type: biochemical
c-Abl-T3151 = c-Abl-T3151 (Homo sapiens, UniProt P00519, T315I); assay: Kinase panel (Novartis); assay type: biochemical
FAK = FAK (Homo sapiens, UniProt Q05397); assay: Kinase panel (Novartis); assay type: biochemical
CDK2/A = CDK2/A (Homo sapiens, UniProt P24941); assay: Kinase panel (Novartis); assay type: biochemical
FGFR-3-K650E = FGFR-3-K650E (Homo sapiens, UniProt P22607, K650E); assay: Kinase panel (Novartis); assay type: biochemical
C57BL/6J mice [3] = assay: Amphetamine/chlordiazepoxide hyperactivity model of mania, open field locomotor activity; assay type: in vivo; details: 5-ING-135 50 mg/kg, 5 min pretreatment; amphetamine 4 mg/kg + chlordiazepoxide 2.5 mg/kg; 60 min
Description: Hyperactivity models are often used to mimic the mania associated with bipolar disorder.
Certain benzofuran-based ligands of this invention were studied in a novel mouse model of mania that has recently been validated with several clinically effective mood stabilizers. […] Mice were then injected with amphetamine (4 mg/kg) or amphetamine (4 mg/kg) and chlordiazepoxide (2.5 mg/kg) and locomotor activity was monitored for 60 min. The open field is a square box surrounded by an array of infra-red beams and their behavior is automatically recorded for 60 minutes in the open field test chamber (10.75″×10.75″×8″H with infra-red (I/R) array, model ENV 510, MED Associates). After this period the animals were returned to their home cages and then to the main colony.
Control treatments are as indicated. FIG. 1B illustrates similar locomotion activity data of treated mice measured in cm over 5 minute intervals for 60 minutes.

PKCα = PKCα (Homo sapiens, UniProt P17252); assay: Kinase panel (Novartis); assay type: biochemical
HupT3 = assay: Antiproliferation MTS assay, pancreatic cancer cells; assay type: cell-based; details: Homo sapiens, HuP-T3, as reported in Gaisina et al. (2009) J. Med. Chem. 52(7), 1853-1863
JNK1 = JNK1 (Homo sapiens, UniProt P45983); assay: Kinase panel (Novartis); assay type: biochemical
[4] = Passage of the brain-blood barrier in animal models; assay type: in vivo; details: as assessed in animal models
OVCA432 = assay: Antiproliferation assay, ovarian cancer cells; assay type: cell-based; details: ovarian cancer cell proliferation
Description: (§1) The pancreatic cancer cell lines BxPc-3, HupT3, MiaPaCa-2, Panc 04.03, and SU86.86 were obtained from ATCC (Rockville, Md.) and were grown in medium (DMEM or RPMI) containing 10% fetal calf serum and L-glutamine. Pancreatic cancer cells were plated out in duplicate into 6-wells of a 96-well microtiter plate at 2.5−4×10^3 cells per well. Four-hours post plating, individual wells were treated with diluent (DMSO) or varying concentrations of commercial compounds, AR-A014418 and SB216763, or the indicated GSK inhibitors of this invention from a concentration of 1 nM to 50 microM. […] The IC50s were calculated using XLfit (IDBS Limited, Guildford, UK).
(§2) Similar antiproliferation assays were performed using ovarian cancer cells. Compound 40 is of particular interest for inhibition of ovarian cancer cell proliferation.

SKOV3 = assay: Antiproliferation assay, ovarian cancer cells; assay type: cell-based; details: Homo sapiens, SK-OV-3; ovarian cancer cell proliferation
Description: as §1, §2

MIAPaCa-2 = assay: Antiproliferation MTS assay, pancreatic cancer cells; assay type: cell-based; details: Homo sapiens
[5] = test system: M-17 cancer cells co-transfected with α-Syn and DAT; assay: Neuroprotection against MPP+-mediated cell death, MTT assay; assay type: cell-based; details: MPP+ 48 h, inhibitor 0.1-10,000 nM
Description: GSK-3β inhibitors are examined for their capacity to interfere with two of the regulated processes playing an important role in the MPP+-induced model (MPP+ is N-methyl-4-phenylpyridinium) of neurodegeneration: Tau phosphorylation at the PHF-1 binding site (PHF-Tau; epitope which belongs to AD-like Tau antigenicity) and α-Syn-induced toxicity. Compounds are screened in in vitro assays, where their neuroprotective effects to protect against MPP+-mediated cell death was estimated. The cell assays are conducted as follows: M-17 cancer cells are co-transfected with α-Syn and DAT at a 3:1 DNA mimicking that found in Substantia nigra ratio, as we have described previously (Wersinger, C., et al The FASEB journal 2003, 17, 2151-2153). Cells are treated with MPP^+ for 48 h in the absence and presence of increasing amounts of GSK-3β inhibitors [0.1-10,000 nM], and cell death was measured by MTT (Thiazolyl Blue Tetrazolium Bromide) assays. Under these conditions, MPP^+ caused ˜80% cell death.

CDK-3/cyclinE [6] = molecular target: T2, CDK-3/cyclinE; assay: biochemical
C57BL/6J mice [7] = details: Hanania et al. 2005; cited from earlier work
mice = details: Hanania et al. 2005, Brody et al. 2003; cited from earlier work

T1 sequence (P49841 whole entry): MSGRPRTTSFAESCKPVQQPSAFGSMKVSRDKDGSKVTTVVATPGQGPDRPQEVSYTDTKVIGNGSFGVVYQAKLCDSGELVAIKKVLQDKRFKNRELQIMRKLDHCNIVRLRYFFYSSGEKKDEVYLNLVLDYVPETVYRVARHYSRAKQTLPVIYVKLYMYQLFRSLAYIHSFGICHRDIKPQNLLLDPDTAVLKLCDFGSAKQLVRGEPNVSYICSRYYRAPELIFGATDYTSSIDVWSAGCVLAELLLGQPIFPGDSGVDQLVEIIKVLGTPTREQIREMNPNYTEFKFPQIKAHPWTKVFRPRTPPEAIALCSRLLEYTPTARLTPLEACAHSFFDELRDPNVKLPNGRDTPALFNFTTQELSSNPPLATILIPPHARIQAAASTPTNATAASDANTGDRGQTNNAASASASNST
Sequence of CDK-4/cyclinD1 (P11802 whole entry, species assumed): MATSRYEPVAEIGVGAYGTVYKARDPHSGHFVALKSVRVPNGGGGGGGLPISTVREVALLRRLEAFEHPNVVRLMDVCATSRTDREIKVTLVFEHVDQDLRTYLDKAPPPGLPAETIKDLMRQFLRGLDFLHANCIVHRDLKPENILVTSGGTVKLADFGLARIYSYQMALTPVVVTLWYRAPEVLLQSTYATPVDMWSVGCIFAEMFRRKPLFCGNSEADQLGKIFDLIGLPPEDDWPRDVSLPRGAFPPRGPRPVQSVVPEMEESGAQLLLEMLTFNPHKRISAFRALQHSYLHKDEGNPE
Sequence of CDK-4/cyclinD1 (P24385 whole entry partner, species assumed): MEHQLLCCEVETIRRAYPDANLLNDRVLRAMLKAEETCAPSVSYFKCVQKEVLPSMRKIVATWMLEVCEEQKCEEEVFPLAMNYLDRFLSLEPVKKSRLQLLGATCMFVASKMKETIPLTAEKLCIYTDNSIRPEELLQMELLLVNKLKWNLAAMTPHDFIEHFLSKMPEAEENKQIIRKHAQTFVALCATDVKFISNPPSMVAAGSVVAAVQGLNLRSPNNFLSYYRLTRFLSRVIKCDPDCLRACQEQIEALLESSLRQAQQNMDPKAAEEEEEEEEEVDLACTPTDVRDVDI
Sequence of CDK-1/cyclinB (P06493 whole entry, species assumed): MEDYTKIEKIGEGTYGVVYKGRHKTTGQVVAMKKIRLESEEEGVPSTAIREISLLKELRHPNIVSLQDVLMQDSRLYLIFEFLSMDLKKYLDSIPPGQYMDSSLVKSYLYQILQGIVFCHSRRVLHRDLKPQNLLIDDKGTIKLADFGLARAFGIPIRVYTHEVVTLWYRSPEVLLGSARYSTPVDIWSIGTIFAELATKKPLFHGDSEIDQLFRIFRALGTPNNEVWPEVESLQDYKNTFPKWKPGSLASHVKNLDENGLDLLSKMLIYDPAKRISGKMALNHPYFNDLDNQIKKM
Sequence of CDK-1/cyclinB (P14635 whole entry partner, species assumed): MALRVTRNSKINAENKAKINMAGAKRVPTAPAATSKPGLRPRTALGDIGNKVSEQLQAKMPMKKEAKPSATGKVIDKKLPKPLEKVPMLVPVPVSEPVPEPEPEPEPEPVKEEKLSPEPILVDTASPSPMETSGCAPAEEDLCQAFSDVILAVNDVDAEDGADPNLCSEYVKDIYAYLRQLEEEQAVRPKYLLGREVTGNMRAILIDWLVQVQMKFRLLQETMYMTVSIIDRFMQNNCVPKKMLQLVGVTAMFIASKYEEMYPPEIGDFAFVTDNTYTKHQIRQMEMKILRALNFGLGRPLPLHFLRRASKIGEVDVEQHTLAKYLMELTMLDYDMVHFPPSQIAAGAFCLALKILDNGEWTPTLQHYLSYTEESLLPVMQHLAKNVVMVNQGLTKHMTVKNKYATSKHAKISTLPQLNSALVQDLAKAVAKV
Sequence of CDK-6/cyclinD3 (Q00534 whole entry, species assumed): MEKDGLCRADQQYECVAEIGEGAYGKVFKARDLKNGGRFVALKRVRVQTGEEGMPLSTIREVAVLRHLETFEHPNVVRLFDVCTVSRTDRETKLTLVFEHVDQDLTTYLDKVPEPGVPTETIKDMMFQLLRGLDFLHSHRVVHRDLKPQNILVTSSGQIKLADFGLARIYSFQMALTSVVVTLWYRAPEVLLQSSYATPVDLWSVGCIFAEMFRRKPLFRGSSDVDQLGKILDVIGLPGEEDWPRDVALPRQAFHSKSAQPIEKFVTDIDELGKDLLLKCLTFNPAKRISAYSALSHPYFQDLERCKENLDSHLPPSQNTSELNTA
Sequence of CDK-6/cyclinD3 (P30281 whole entry partner, species assumed): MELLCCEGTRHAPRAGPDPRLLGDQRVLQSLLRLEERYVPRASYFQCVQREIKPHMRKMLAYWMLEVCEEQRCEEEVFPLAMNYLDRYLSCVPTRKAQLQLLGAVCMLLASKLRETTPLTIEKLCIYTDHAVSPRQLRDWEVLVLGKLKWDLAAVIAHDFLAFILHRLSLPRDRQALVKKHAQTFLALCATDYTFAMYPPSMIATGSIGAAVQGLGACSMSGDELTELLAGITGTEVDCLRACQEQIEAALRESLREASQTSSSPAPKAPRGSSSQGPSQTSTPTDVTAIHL
Sequence of CDK-9/cyclinT1 (P50750 whole entry, species assumed): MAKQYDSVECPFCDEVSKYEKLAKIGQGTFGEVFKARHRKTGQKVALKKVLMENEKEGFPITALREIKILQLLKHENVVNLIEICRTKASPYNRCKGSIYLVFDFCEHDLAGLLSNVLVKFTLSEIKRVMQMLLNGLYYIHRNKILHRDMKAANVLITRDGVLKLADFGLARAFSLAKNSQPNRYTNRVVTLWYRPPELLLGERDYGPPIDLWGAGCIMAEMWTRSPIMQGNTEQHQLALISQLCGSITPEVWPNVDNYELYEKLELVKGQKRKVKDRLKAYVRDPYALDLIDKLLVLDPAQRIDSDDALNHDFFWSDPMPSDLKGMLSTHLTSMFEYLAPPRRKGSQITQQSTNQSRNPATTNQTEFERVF
Sequence of CDK-9/cyclinT1 (O60563 whole entry partner, species assumed): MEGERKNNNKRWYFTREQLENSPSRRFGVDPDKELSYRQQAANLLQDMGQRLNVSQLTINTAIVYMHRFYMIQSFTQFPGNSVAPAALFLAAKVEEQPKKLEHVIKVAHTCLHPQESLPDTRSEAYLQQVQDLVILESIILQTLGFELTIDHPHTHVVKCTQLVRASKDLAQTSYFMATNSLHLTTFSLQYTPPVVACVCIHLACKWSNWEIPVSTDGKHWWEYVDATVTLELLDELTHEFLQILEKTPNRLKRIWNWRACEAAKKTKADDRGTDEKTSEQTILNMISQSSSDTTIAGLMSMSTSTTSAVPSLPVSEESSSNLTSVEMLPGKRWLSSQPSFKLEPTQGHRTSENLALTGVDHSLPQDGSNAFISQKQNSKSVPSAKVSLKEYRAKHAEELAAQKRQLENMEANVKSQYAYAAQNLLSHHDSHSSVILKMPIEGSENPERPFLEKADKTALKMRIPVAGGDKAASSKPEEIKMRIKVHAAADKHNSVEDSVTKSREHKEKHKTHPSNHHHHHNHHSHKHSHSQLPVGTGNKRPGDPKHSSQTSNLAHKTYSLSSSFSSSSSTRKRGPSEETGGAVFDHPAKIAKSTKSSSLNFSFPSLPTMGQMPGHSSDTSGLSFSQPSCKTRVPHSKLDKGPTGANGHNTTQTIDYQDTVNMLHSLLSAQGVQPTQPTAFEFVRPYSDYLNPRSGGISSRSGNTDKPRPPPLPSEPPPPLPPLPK
Sequence of Ret (P07949 29-1114, species assumed): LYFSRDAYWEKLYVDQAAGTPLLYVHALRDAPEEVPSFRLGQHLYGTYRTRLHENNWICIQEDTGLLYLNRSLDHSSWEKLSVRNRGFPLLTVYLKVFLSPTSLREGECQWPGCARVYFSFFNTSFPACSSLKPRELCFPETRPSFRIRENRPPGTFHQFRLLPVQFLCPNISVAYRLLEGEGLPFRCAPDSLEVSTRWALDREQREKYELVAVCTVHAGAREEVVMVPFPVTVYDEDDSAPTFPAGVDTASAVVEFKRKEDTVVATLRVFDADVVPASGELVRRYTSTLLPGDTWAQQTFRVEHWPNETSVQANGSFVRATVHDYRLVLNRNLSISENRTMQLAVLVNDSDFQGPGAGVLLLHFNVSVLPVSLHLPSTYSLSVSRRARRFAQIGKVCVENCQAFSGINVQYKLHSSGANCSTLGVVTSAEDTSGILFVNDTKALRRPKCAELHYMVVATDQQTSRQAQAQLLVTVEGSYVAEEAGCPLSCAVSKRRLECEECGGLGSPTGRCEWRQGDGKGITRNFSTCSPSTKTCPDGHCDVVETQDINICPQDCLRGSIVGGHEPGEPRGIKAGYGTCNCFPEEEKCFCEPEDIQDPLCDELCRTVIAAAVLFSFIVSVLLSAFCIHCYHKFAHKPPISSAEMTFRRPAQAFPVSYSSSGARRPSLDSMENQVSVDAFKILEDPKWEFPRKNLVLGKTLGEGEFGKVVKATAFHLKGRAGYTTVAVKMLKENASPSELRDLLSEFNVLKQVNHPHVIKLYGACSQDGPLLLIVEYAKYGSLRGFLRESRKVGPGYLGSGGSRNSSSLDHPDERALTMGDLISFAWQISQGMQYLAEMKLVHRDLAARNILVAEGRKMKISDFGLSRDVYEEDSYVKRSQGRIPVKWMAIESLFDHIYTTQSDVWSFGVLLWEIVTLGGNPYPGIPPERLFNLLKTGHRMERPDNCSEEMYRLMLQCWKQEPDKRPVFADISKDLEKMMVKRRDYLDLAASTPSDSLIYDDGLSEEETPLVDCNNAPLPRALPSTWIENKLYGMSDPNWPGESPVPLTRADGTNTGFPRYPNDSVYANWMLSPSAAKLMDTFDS

IC50 (b-Raf-V599E) | IC50 (c-src) | IC50 (EphB4) | IC50 (Tek) | IC50 (JAK-2) | IC50 (IGF-1R) | IC50 (Axl) | IC50 (Flt-3) | IC50 (HER-1) | IC50 (c-Met) | Compound | IC50 (CDK-4/cyclinD1) | IC50 (CDK-9/cyclinT1) | IC50 (CDK-2/cyclinE) | IC50 (CDK-1/cyclinB) | IC50 [1] | IC50 (CDK-3/cyclinE [2]) | IC50 (CDK-2/cyclinA) | IC50 (CDK-6/cyclinD3) | IC50 (CDK-5/P35) | IC50 (CDK-5/P25) | also measured
 |  |  |  |  |  |  |  |  |  | Cn1cc(C2=C(c3coc4cc(CO)ccc34)C(=O)NC2=O)c2cc(F)c(Cl)cc21 [Compound 13, 3-(6-Chloro-5-fluoro-1-methyl-1H-indol-3-yl)-4-(6-hydroxymethyl-benzofuran-3-yl)-pyrrole-2,5-dione] | 18.3 µM | 5.4 µM | 11700 nM | 13.4 µM | 0.95 ± 0.19 nM | 25.1 µM | 10.6 µM | 11.6 µM |  |  | 
 |  |  |  |  |  |  |  |  |  | COCc1cccc2c(C3=C(c4coc5ccccc45)C(=O)NC3=O)cn(C)c12 [Compound 52, 3-Benzofuran-3-yl-4-(7-methoxymethyl-1-methyl-1H-indol-3-yl)-pyrrole-2,5-dione] | 8.62 µM | 16 µM | 3880 nM | 8.53 µM | 0.23 ± 0.04 nM | 17.7 µM | 4.09 µM | 8.33 µM | 12.7 µM | 12.9 µM | 
> 10 µM | 4.5 µM | > 10 µM | > 10 µM | > 10 µM | > 10 µM | > 10 µM | > 10 µM | 6.3 µM | > 10 µM | Cn1cc(C2=C(c3coc4ccccc34)C(=O)NC2=O)c2ccc(O)cc21 [Compound 45, 3-Benzofuran-3-yl-4-(6-hydroxy-1-methyl-1H-indol-3-yl)-pyrrole-2,5-dione] |  |  |  |  | 15 ± 3 nM |  |  |  |  |  | IC50 (PDK1): 0.73 µM; IC50 (c-Abl): > 10 µM; IC50 (KDR): 2.2 µM; IC50 (Ret): 5 µM; IC50 (c-Abl-T3151): > 10 µM; IC50 (FAK): > 10 µM; IC50 (CDK2/A): > 10 µM; IC50 (FGFR-3-K650E): 7 µM
> 10 µM | > 10 µM | > 10 µM | > 10 µM | > 10 µM | > 10 µM | > 10 µM | > 10 µM | > 10 µM | > 10 µM | Cn1cc(C2=C(c3coc4ccccc34)C(=O)NC2=O)c2cc(Br)ccc21 [Compound 19, 3-Benzofuran-3-yl-4-(5-bromo-1-methyl-1H-indol-3-yl)-pyrrole-2,5-dione] |  |  |  |  |  |  |  |  |  |  | Inhibition of hyperactivity produced by amphetamine/chlordiazepoxide (locomotor activity) (C57BL/6J mice [3]): inhibited the hyperactivity; IC50 (PKCα): 61.4 µM; IC50 (HupT3): 43 ± 6.3 µM; IC50 (PDK1): > 10 µM; IC50 (c-Abl): > 10 µM; IC50 (KDR): > 10 µM; IC50 (Ret): > 10 µM; IC50 (JNK1): > 10 µM; Ability to pass the brain-blood barrier [4]: ability to pass the brain-blood barrier; IC50 (c-Abl-T3151): > 10 µM; IC50 (FAK): > 10 µM; IC50 (OVCA432): 33.6 µM; IC50 (SKOV3): 74.5 µM; IC50 (CDK2/A): 3.98 µM; Ki (CDK2/A): 189 nM; IC50 (FGFR-3-K650E): > 10 µM; IC50 (MIAPaCa-2; MIA PaCa-2, as reported in Gaisina et al. (2009) J. Med. Chem. 52(7), 1853-1863): 30 ± 2.2 µM; IC50 (MIAPaCa-2; MIA PaCa-2, 72 hrs, MTS): 30 µM
 |  |  |  |  |  |  |  |  |  | COc1cccc2c(C3=C(c4cn(C)c5cc(Cl)c(F)cc45)C(=O)NC3=O)coc12 [Compound 15, 3-(6-Chloro-5-fluoro-1-methyl-1H-indol-3-yl)-4-(7-methoxy-benzofuran-3-yl)-pyrrole-2,5-dione] | 59.5 µM | > 100 µM | 99000 nM | 46.2 µM | 260 ± 32 nM |  | 27.2 µM | 165 µM | 61.6 µM | 108 µM | Neuroprotection against MPP+ (percent cell recovery, FIG. 2) [5]: neuroprotection of the cells; IC50 (OVCA432): 10.7 µM; IC50 (SKOV3): 42.7 µM; IC50 (CDK-3/cyclinE [6]): > 100 µM
 |  |  |  |  |  |  |  |  |  | Nc1nnc(-c2cccc(Cl)c2Cl)c(N)n1 [lamotrigine] |  |  |  |  |  |  |  |  |  |  | Block of CDP + amphetamine hyperactivity by mood stabilizers (C57BL/6J mice [7]): blocked; Sensorimotor gating (prepulse inhibition) (mice): improve sensorimotor gating
